As a reminder, the IC50 is the concentration at which inhibition is half-maximal.

Holding throughout (assay type): biochemical
For experiment [1], the target named is MMP-3CD (catalytic domain of stromelysin-1) (Homo sapiens, UniProt P08254). The experiment can be described thus: Thiopeptolide hydrolysis assay, MMP-3CD. Particulars: thiopeptolide substrate, MES pH 6.0. The source says:
(§1) The assays measure the amount by which a test compound reduces the hydrolysis of a thiopeptolide substrate catalyzed by a matrix metalloproteinase enzyme. Such assays are described in detail by Ye et al., in Biochemistry, 1992;31(45):11231-11235, which is incorporated herein by reference.
(§2) Thiopeptolide substrates show virtually no decomposition or hydrolysis at or below neutral pH in the absence of a matrix metalloproteinase enzyme. A typical thiopeptolide substrate commonly utilized for assays is Ac-Pro-Leu-Gly-thioester-Leu-Leu-Gly-OEt. A 100 μL assay mixture will contain 50 mM of N-2-hydroxyethylpiperazine-N′-2-ethanesulfonic acid buffer (“HEPES”) at pH 7.0, 10 mM CaCl2, 100 μM thiopeptolide substrate, and 1 mM 5,5″-dithio-bis-(2-nitro-benzoic acid) (DTNB). The thiopeptolide substrate concentration may be varied from, for example, 10 to 800 μM to obtain Km and Kcat values. The change in absorbance at 405 nm is monitored on a Thermo Max microplate reader (Molecular Devices, Menlo Park, Calif.) at room temperature (22° C.). The calculation of the amount of hydrolysis of the thiopeptolide substrate is based on E412=13600 M^−1 cm^−1 for the DTNB-derived product 3-carboxy4-nitrothiophenoxide. Assays are carried out with and without matrix metalloproteinase inhibitor compounds, and the amount of hydrolysis is compared for a determination of inhibitory activity of the test compounds.
(§3) Several representative compounds have been evaluated for their ability to inhibit various matrix metalloproteinase enzymes. In Table I, MMP-1FL refers to full length interstitial collagenase; MMP-2FL refers to full length Gelatinase A; MMP-3CD refers to the catalytic domain of stromelysin-1; MMP-7FL refers to full length matrilysin; MMP-9FL refers to full length Gelatinase B; MMP-13CD refers to the catalytic domain of collagenase 3; and MMP-14CD refers to the catalytic domain of MMP-14. Test compounds were evaluated at various concentrations in order to determine their respective IC50 values, the micromolar concentration of compound required to cause a 50% inhibition of the catalytic activity of the respective enzyme.
It should be appreciated that the assay buffer used with MMP-3CD was 50 mM of 2-morpholinoethanesulfonic acid monohydrate (“MES”) at pH 6.0 rather than the HEPES buffer at pH 7.0 described above.

For experiment [2], the target named is MMP-9FL (full length Gelatinase B) (Homo sapiens, UniProt P14780). The experiment can be described thus: Thiopeptolide hydrolysis assay, MMP-9FL. The following applies: thiopeptolide substrate, HEPES pH 7.0, 22° C.
From the text: as §1, §2, §3

Experiment [3] deals with MMP-14CD (catalytic domain of MMP-14) (Homo sapiens, UniProt P50281). The experiment in a line: Thiopeptolide hydrolysis assay, MMP-14CD. The following applies: thiopeptolide substrate, HEPES pH 7.0, 22° C.
From the text: as §1, §2, §3

The target of experiment [4] is T1, MMP-2FL (full length Gelatinase A) (Homo sapiens, UniProt P08253).
T1 sequence (P08253 110-660): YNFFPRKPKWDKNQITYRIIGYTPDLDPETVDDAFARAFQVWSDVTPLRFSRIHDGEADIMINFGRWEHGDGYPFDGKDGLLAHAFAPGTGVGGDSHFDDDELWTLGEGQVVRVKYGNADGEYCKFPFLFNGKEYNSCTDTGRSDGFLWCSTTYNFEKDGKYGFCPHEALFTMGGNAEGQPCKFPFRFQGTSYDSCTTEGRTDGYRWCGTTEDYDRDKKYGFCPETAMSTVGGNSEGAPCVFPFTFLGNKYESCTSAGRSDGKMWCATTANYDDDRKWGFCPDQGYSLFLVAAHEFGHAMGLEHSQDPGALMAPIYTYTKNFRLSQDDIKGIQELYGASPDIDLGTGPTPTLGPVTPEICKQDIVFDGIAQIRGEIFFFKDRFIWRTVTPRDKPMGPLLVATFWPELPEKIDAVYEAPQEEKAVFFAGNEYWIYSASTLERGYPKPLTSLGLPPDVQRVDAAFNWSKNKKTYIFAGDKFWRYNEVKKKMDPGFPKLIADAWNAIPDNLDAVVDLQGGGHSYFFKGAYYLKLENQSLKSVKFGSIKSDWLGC
The experiment in a line: Thiopeptolide hydrolysis assay, MMP-2FL. The following applies: thiopeptolide substrate, HEPES pH 7.0, 22° C.
From the text: as §1, §2, §3

Experiment [5] has as its target T2, MMP-7FL (full length matrilysin) (Homo sapiens, UniProt P09237).
T2 sequence (P09237 95-267): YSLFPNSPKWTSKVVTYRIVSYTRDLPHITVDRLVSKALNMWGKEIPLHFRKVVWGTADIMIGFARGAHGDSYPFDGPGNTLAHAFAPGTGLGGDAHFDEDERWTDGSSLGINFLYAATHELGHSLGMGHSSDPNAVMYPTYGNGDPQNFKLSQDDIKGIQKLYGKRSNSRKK
The experiment can be described thus: Thiopeptolide hydrolysis assay, MMP-7FL. Particulars: thiopeptolide substrate, HEPES pH 7.0, 22° C.
From the text: as §1, §2, §3

The target of experiment [6] is T3, MMP-1FL (full length interstitial collagenase) (Homo sapiens, UniProt P03956).
T3 sequence (P03956 100-469): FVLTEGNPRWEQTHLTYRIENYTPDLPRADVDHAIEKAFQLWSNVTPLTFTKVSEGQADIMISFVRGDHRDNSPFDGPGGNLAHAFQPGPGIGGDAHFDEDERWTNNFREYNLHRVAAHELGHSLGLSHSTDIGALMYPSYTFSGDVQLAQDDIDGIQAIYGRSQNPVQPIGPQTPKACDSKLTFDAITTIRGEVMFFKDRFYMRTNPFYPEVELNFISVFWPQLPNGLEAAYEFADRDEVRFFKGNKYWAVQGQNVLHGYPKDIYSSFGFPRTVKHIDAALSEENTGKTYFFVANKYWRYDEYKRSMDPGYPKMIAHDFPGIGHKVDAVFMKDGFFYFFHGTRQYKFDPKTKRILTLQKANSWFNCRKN
The experiment in a line: Thiopeptolide hydrolysis assay, MMP-1FL. The following applies: thiopeptolide substrate, HEPES pH 7.0, 22° C.
From the text: as §1, §2, §3

Experiment [7] deals with MMP-13CD (catalytic domain of collagenase 3) (Homo sapiens, UniProt P45452). The experiment in a line: Thiopeptolide hydrolysis assay, MMP-13CD. The following applies: thiopeptolide substrate, HEPES pH 7.0, 22° C.
From the text: as §1, §2, §3

SMILES strings stand for the structures.

MMP-3CD (catalytic domain of stromelysin-1), sequence (P08254 100-272 limits assumed): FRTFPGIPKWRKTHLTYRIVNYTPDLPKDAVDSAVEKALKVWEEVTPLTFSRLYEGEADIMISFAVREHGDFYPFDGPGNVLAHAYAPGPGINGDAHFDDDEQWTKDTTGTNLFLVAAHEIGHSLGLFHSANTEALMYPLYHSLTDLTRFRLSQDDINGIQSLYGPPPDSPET
MMP-9FL (full length Gelatinase B), sequence (P14780 94-707, species assumed): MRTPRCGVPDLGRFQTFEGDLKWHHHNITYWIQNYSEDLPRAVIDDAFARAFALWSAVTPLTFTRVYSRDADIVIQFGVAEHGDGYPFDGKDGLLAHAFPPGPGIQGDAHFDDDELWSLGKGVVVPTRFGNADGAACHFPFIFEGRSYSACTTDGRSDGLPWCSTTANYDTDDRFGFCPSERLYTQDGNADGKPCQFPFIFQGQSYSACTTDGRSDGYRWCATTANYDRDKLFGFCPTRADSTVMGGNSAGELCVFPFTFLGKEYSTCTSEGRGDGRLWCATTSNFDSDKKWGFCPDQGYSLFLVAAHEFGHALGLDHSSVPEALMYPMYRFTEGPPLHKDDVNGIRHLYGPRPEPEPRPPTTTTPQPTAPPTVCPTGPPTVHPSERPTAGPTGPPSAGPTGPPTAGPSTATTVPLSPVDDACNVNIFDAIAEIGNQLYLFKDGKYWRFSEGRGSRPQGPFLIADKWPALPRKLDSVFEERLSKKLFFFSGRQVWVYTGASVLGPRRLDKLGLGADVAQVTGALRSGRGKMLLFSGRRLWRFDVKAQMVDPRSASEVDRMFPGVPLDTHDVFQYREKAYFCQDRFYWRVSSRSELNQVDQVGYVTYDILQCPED

Turning to `CC1(C)SCCN(S(=O)(=O)c2ccc(-c3ccc(Br)cc3)cc2)[C@H]1C(=O)O` [Example 1, (S)-4-(4′-Bromo-biphenyl-4-sulfonyl)-2,2-dimethyl-thiomorpholine-3-carboxylic acid], the IC50 in experiment [1] was 0.003 µM; in experiment [2], 0.26 µM; in experiment [3], 0.048 µM; in experiment [4], 0.006 µM; in experiment [5] it was 10 µM; in experiment [6], 3.1 µM. In experiment [7], this compound displayed an IC50 of 0.016 µM.
In the case of `CC1(C)SCCN(S(=O)(=O)c2ccc(-c3ccc(Br)cc3)cc2)[C@H]1C(=O)NO` [Example 2, (S)-4-(4′-Bromo-biphenyl-4-sulfonyl)-2,2-dimethyl-thiomorpholine-3-carboxylic acid hydroxyamide], the IC50 amounted to 0.002 µM in experiment [1]; 0.001 µM in experiment [2]; 0.001 µM in experiment [3]; 0.002 µM in experiment [4]; 0.037 µM in experiment [5]; 0.002 µM in experiment [6]. In experiment [7], this compound came in with a concentration for half-maximal inhibition (IC50) of 0.001 µM.
In the case of `CC1(C)[C@H](C(=O)O)N(S(=O)(=O)c2ccc(-c3ccc(Br)cc3)cc2)CCS1(=O)=O` [Example 3, (S)-4-(4′-Bromo-biphenyl-4-sulfonyl)-2,2-dimethyl-1,1-dioxo-thiomorpholine-3-carboxylic acid], the half-inhibitory concentration (IC50) in experiment [1] was 0.005 µM; in experiment [2], 0.78 µM; in experiment [3], 0.059 µM; in experiment [4], 0.012 µM; in experiment [5] it was 8.8 µM; in experiment [6], 1.7 µM. In experiment [7], this compound registered an IC50 of 0.032 µM.
Consider `COc1ccc(-c2ccc(S(=O)(=O)N3CCSC(C)(C)[C@@H]3C(=O)O)cc2)cc1C=O` [Example 48, (S)-4-(3′-Formyl-4′-methoxy-biphenyl-4-sulfonyl)-2,2-dimethyl-thiomorpholine-3-carboxylic acid], for which the IC50 is 0.775 µM in experiment [1]; 25.8 µM in experiment [2]; 0.037 µM in experiment [3]; 1.55 µM in experiment [4]; 2.04 µM in experiment [7].
On to `CC1(C)SCCN(S(=O)(=O)c2ccc(-c3ccc(Cl)cc3Cl)cc2)[C@H]1C(=O)O` [Example 56, (S)-4-(2′,4′-Dichloro-biphenyl-4-sulfonyl)-2,2-dimethyl-thiomorpholine-3-carboxylic acid], for which the half-inhibitory concentration (IC50) is 1.5 µM in experiment [1], 18 µM in experiment [2], 0.81 µM in experiment [4] and 1.1 µM in experiment [7].
Take `CC1(C)SCCN(S(=O)(=O)c2ccc(-c3ccc(C(F)(F)F)cc3)cc2)[C@H]1C(=O)O` [Example 57, (S)-2,2-Dimethyl-4-(4′-trifluoromethyl-biphenyl-4-sulfonyl)-thiomorpholine-3-carboxylic acid]: the IC50 in experiment [1] stood at 0.0045 µM; in experiment [2], 0.54 µM; in experiment [4], 0.0088 µM; in experiment [7], 0.013 µM.
For `CC1(C)SCCN(S(=O)(=O)c2ccc(-c3cccc(F)c3)cc2)[C@H]1C(=O)O` [Example 58, (S)-4-(3′-Fluoro-biphenyl-4-sulfonyl)-2,2-dimethyl-thiomorpholine-3-carboxylic acid], in that order: 0.082 µM, 6.3 µM, 0.134 µM and 0.425 µM.
For the compound `CC1(C)SCCN(S(=O)(=O)c2ccc(-c3cccc(OC(F)(F)F)c3)cc2)[C@H]1C(=O)O` [Example 59, (S)-2,2-Dimethyl-4-(3′-trifluoromethoxy-biphenyl-4-sulfonyl)-thiomorpholine-3-carboxylic acid], the IC50 in experiment [1] turned out to be 1.1 µM; in experiment [2] it was 30 µM; in experiment [4], 5.2 µM; in experiment [7], 5.3 µM.
On the same counts, the results for `CC(=O)c1cccc(-c2ccc(S(=O)(=O)N3CCSC(C)(C)[C@@H]3C(=O)O)cc2)c1` [Example 61, (S)-4-(3′-Acetyl-biphenyl-4-sulfonyl)-2,2-dimethyl-thiomorpholine-3-carboxylic acid] are 0.763 µM, 49 µM, 3.4 µM and 2.9 µM.

Values taken from patent publication US6686355B2, “Biphenyl sulfonamides useful as matrix metalloproteinase inhibitors” (Warner-Lambert Company, priority 2001, dated 2004).
